Source: patent publication US20190369111A1, “MOLECULAR KINETICS EVALUATION METHOD AND SCREENING METHOD” (Tokyo University of Science Foundation, priority 2016, published 2019)

Target: T1, wild-type H-Ras protein (Homo sapiens, UniProt P01112)
T1 construct: an endogenous wild-type K-Ras protein and wild-type H-Ras protein in HeLa cells; endogenous in cells; host or cells: HeLa cells
Experiment: Degradation of endogenous wild-type H-Ras protein in HeLa cells, Western blot analysis
Assay type: cell-based
Conditions: 48 hours after addition
Procedure: HeLa cells were seeded in a 24-well plate at a cell density of 8×10^4 cells/well, and then cultured under conditions of 37° C. and 5 vol % CO2 for 16 hours.
After 16 hours from cell seeding, TUS-007 was added to HeLa cells as follows. As a medium, a serum-free medium (37° C.) in which 1 mass % L-glutamine solution (Sigma-Aldrich) was added to D-MEM (high D-glucose, phenol red, sodium pyruvate (Wako Pure Chemical Industries, Ltd.)) was used. It is noted that the L-glutamine solution was added immediately before use. A DMSO solution containing TUS-007 was mixed with the medium so that the concentration of DMSO was 1 vol %, and added to each well at 500 μL/well, and cultured under conditions of 37° C. and 5 vol % CO2. As a control, DMSO was used.
The medium was removed 48 hours after addition of TUS-007, and then PBS was added to wash the cells. […]
After electrophoresis, proteins were transferred to a PVDF membrane (Immobion™-P, Millipore) under conditions of 100 V and 2 hours using a tank-type blotting device and a transfer buffer (25 mM Tris-HCl, 195 mM glycine, 0.01% SDS, 15% methanol). […] Subsequently, the membrane was treated with a chemiluminescence reagent Immobilon™ Western (Millipore), and then chemiluminescence was detected using a lumino image analyzer LAS-3000 (FUJIFILM Corporation). […]

T1 sequence (P01112 whole entry): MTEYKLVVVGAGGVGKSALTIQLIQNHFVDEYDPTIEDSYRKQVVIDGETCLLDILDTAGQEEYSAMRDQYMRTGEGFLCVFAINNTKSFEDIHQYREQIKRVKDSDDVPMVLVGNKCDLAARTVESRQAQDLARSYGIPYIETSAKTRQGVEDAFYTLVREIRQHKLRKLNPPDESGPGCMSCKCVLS

CC[C@@H](C)[C@H](NC(=O)CCCCCCNC(=O)[C@H](CC(C)C)NC(=O)CNC(=O)c1cc(Cl)ccc1Cl)C(=O)Nc1ccc2[nH]c(Cc3c[nH]c4ccccc34)nc2c1 [TUS-007]
amount of endogenous wild-type H-Ras protein: reduced
